Data from patent US10272110B2, “Methods for promoting HSC engraftment” (CHILDREN'S MEDICAL CENTER CORPORATION, priority 2006, dated 2019).
“Also recorded” adds a separate entry of the source. Read-outs that look alike come from different tables or passages of the source.

Tests used:
embryonic hematopoiesis = assay: RA / DEAB treatment of wild-type and kgg zebrafish embryos; assay type: in vivo
[1] = test system: ES cell-derived embryoid bodies; assay: Hematopoietic colonies from ES cell-derived embryoid bodies treated with DEAB or RA; assay type: cell-based, mouse; details: added to EBs between days two to three
From the text: DEAB and RA also affected the formation of mouse hematopoietic progenitors arising from ES cell-derived embryoid bodies (EBs). […] See also Davidson et al., 425 Nature 300-06 (2003); Davidson & Zon, 292(2) Devel. Biol. 506-18 (2006).

mouse ES cells = assay: ES cell hematopoietic differentiation assays (M3434 methylcellulose and OP9 colony assays); assay type: cell-based; details: indomethacin 20 μM (OP9) and 100 μM (GM)
Procedure: ES cell hematopoietic differentiation assays were performed as previously described. […] M3434 methylcellulose colony forming and OP9 colony assays were conducted on day 6 and analyzed at […], respectively. Colony type was identified by morphological analysis; duplicate chemical exposures were averaged to determine the reported colony number (n=3 replicates minimum).

[2] = test system: CFU-S from murine bone marrow cells; assay: Murine colony-forming units-spleen (CFU-S); assay type: in vivo, mouse
Procedure: Two independent BM samples were treated (n=5/treatment×2 replicates) for each variable. Recipient mice were lethally irradiated with a split dose of 10 Gy. 6×10^4 unfractionated dmPGE2 or control-treated BM cells were injected retro-orbitally into irradiated recipient mice. Spleens were dissected on day eight or twelve, weighed and fixed with Bouin's solution; hematopoietic colonies per spleen were counted. 1×10^5 cells/recipient were transplanted after treatment with the cox inhibitors. FACS sorted ckit^+sca1^+lineage^− BM cells were treated as above and transplanted at a dose of either 100 cells/recipient or 300 cells/recipient.

wnt activity [3] = assay: wnt reporter TOP:dGFP zebrafish embryos; assay type: in vivo; details: vs control
From the text: Clinical experience in patients with APC mutations has shown that inhibition of prostaglandin synthesis results in decreased wnt mediated polyp formation. […] These interactions were examined in vivo using a wnt reporter zebrafish transgenic line, TOP:dGFP. At fifty-percent epiboly, embryos were subjected either to nothing (control), indomethacin, or PGE2, and the amount of wnt signaling activated in the embryo assessed by GFP induction driven from the wnt binding site. Analysis of alterations in GFP expression in the head was analyzed by in situ hybridization. […] FIG. 12.

runx1, cmyb expression = assay: qPCR of HSC gene expression in treated zebrafish embryos; assay type: in vivo
runx1/cmyb+ AGM HSCs [4] = assay: Heat shock wnt-pathway transgenic embryos treated with PG drugs: AGM HSC formation; assay type: in vivo, zebrafish; details: hs:wnt8 embryos heat shocked at five somites
Procedure: More specifically, Wnt signaling through its main transcriptional mediator β-catenin plays an important role in controlling tissue patterning, cell fate decisions, and proliferation in many embryonic contexts, including the development and differentiation of organs. […] Whether wnt signaling has a role during HSC formation in zebrafish was determined using heat shock inducible activators and repressors of the wnt pathway. Briefly, wnt-inducible embryos were harvested and heat shocked for twenty minutes at 38° C. Genotypes were sorted by GFP expression, and the AGM HSCs analyzed by runx1/cmyb expression in situ. […] This is the first evidence in any organism that wnt signaling is required for AGM HSC formation.
Additionally, indomethacin and dmPGE2 was used to investigate the interaction of the wnt and prostaglandin pathways during HSC development and in marrow recovery following injury. FIG. 13 reflects the potential points of interaction of the PG and wnt pathways. […] Furthermore, dmPGE2 can rescue the inhibitory effects of dkk activation on AGM HSC formation at 36 hpf, as shown by in situ hybridization for runx1/cmyb.

wnt activity [5] = assay: wnt activity in kidney marrow of irradiated Top:dGFP adults; assay type: in vivo, zebrafish; details: day three post irradiation
Procedure: (§1) To determine if prostaglandin pathway manipulation can alter wnt activity in the kidney marrow repopulation in the adult, the effects of dmPGE2 and indomethacan was examined further in Top:dGFP lines. […] FIG. 14. To discern whether modulation of prostaglandin signaling can modify the wnt mediated effects on kidney marrow recovery following irradiation, wnt genes were activated by heat shock at 38° C. at two days post irradiation and then. exposure to prostaglandin pathway drugs at one day post heat shock. The hs:wnt8-GFP fish were exposed to indomethacin, while the dkk1, axin, and dnTCF transgenic fish were exposed to dmPGE2. Whole kidney marrow was analyzed by FACS on day ten post-irradiation.

vasculature (flk1) = test system: vasculature (flk1)
Procedure: Wild-type age-matched embryos were arrayed into 48-well plates (˜5 embryos/well) of individual test compounds and exposed from 3-somites until 36 hpf. Three compound libraries were utilized: NINDS Custom Collection (1040), SpecPlus Collection (960) and BIOMOL ICCB Known Bioactives (480). […] In situ hybridization for runx1 and cmyb was performed to assess HSCs. Compounds were retested at 10 μM, 20 μM, and 50 μM. Stem cell specificity was assessed using flk1 at 36 hpf. PGE2, PGI2, dmPGE2 and all cox inhibitors (Sigma) were used at 10 μM to 20 μM.

runx1/cmyb+ AGM HSCs [6] = details: for effect on AGM HSCs in zebrafish embryos (in words): exposure from three somites to 36 hpf, runx1/cmyb staining
Procedure: A chemical genetic screen was conducted to identify novel pathways that modulate definitive HSC formation during zebrafish embryogenesis. FIG. 1. Genes such as runx1 and cmyb, required for HSC development during mammalian hematopoiesis, are expressed in the ventral wall of the dorsal aorta in a region analogous to the mammalian AGM at thirty-six hours post-fertilization (hpf). […] Wild-type embryos were incubated with individual compounds from the three-somite stage until thirty-six hpf. Probes for runx1 and cmyb were combined and utilized to detect HSCs by in situ hybridization.
Wild-type age-matched embryos were arrayed into 48-well plates (˜5 embryos/well) of individual test compounds and exposed from 3-somites until 36 hpf. […] In situ hybridization for runx1 and cmyb was performed to assess HSCs. Compounds were retested at 10 μM, 20 μM, and 50 μM. Stem cell specificity was assessed using flk1 at 36 hpf. PGE2, PGI2, dmPGE2 and all cox inhibitors (Sigma) were used at 10 μM to 20 μM.
Qualitative scoring (# embryos with altered HSCs/# scored) of runx1/cmyb was conducted using the following criteria: Normal/unchanged=continuous line of runx1/cmyb+ endothelial cells and occasional hematopoietic clusters. Decreased/absent=reduction in runx1/cmyb+ cells, including the presence of large gaps in the line of HSCs, isolated positive cells, or absence of expression. Increased/excess=enhancement in runx1/cmyb^+ cells, including many HSC clusters, a thickened line of HSCs, or ectopic expression.

PGE2 formation = assay: HPLC-tandem mass spectrometry of PGE2 in zebrafish embryos; assay type: in vivo; details: 36 hpf embryos, n=3; untreated 18+/−6
Procedure: PGE2 and the stable PGI2 metabolite, 6-keto-PGF1α, were measured using HPLC-tandem mass spectrometry. Ethylacetate extracts from homogenized embryos were spiked with the corresponding stable isotope labeled internal standards (d4-PGE2 and d4-6-keto PGF1α) and allowed to react with methoxylamine. The following mass transitions were monitored: m/z 384→272 (PGE), m/z 398→368 (6-keto PGF1α and TxB2).

[7] = test system: kidney marrow precursor cell population; assay: Kidney marrow recovery after irradiation in heat shock wnt transgenic adults treated with PG drugs; assay type: in vivo, zebrafish; details: hs:wnt8-GFP adults, day ten post-irradiation
Procedure: An irradiation recovery assay was also employed to investigate the role of wnt signaling in hematopoietic homeostasis in zebrafish. Transgenic fish expressing wnt-related genes were sublethally irradiated and heat shock gene induction was initiated by overnight incubation at 38° C. on day two post-irradiation. Kidney marrow was harvested at various timepoints post-irradiation as outlined previously for the prostaglandin experiments. FIG. 11. […] Inhibition of wnt signaling, by heat shock dkk or dnTCF, drastically alters the kinetics of marrow recovery and can result in the complete failure of marrow regeneration and lethality.
as §1

cmyb/lmo2+ HSCs = assay: Confocal quantification of HSCs in cmyb:GFP x lmo2:dsRed bigenic embryos; assay type: in vivo, zebrafish; details: 36 hpf live embryos
Procedure: A long-acting derivative, 16,16-dimethyl-PGE2 (dmPGE2, 10 μM) caused an increase in runx1/cmyb+ AGM HSCs in 78% of embryos examined (97/124). AGM HSCs were inhibited by indomethacin (10 μM) treatment in 90% of embryos analyzed (92/102). […] Transgenic cmyb:GFP zebrafish with green fluorescent HSCs and myeloid progenitor cells were crossed to lmo2:dsRed fish that have red fluorescent endothelial cells and HSCs to visualize the effects of chemical exposure in vivo. […] FIG. 3.
Live 36 hpf treated bigenic zebrafish embryos were embedded in 1% low-melting point agarose containing 0.4 mg/ml Tricaine-S for confocal imaging. cmyb-GFP transgenic reporter lines were created from a BAC containing the cmyb promoter genomic sequence (Galloway, Zhu, Lin, Zon, unpublished); lmo2:DsRed fish were created as described^27. For HSC quantification, cmyb/lmo2+ positive cells were counted in projections of z-stack images (n=10/treatment).

wnt activity [8] = assay: wnt activity in the AGM of TOP:gal mice; details: mouse, in vivo
[9] = test system: peripheral blood and bone marrow WBC; assay: 5-Fluorouracil bone marrow injury; assay type: in vivo, mouse; details: in vivo exposure, IP, 1 mg/kg
Procedure: Mice were treated with 5-FU (150 mg/kg) as described. Venezia et al., 2004. […] Peripheral blood was obtained on day seven and day fourteen, quantified and subjected to multilineage FACS analysis using antibodies (eBioscience) to B220/IgM (B-lymphoid), CD4/8 (T-lymphoid), Mac1/Gr1 (myeloid), Ter119/CD71 (erythroid) and ckit/sca1 (stem/progenitor). Mice were sacrificed on day 16, and bone marrow was isolated, quantified and analyzed by FACS.

[10] = test system: kidney marrow (KM) hematopoietic lineages; assay: Kidney marrow irradiation recovery assay in adult zebrafish; details: 10 μM, irradiated adult zebrafish
From the text: Wild-type fish were sublethally irradiated, exposed to dmPGE2, and evaluated for kinetics of KM recovery by FACS 11 (FIG. 4A).
Adult zebrafish were exposed to 23 Gy of γ-irradiation. […] Whole KM isolated on days 0, 2, 4, 7, 10, 14 was subjected to FSC/SSC FACS analysis to identify hematopoietic lineages (n=5/treatment×3 replicates).

CCN(CC)c1ccc(C=O)cc1 [DEAB]
erythroid cells in wild-type embryos (embryonic hematopoiesis): induced an expansion of erythroid cells | expression of hoxa9a in kgg embryos (embryonic hematopoiesis): failed to rescue | hematopoiesis in kgg mutants (embryonic hematopoiesis): restored hematopoiesis | increase in 'primitive' erythroid colonies (CFU-Ep) [1]: five-eight fold

COc1ccc2c(c1)c(CC(=O)O)c(C)n2C(=O)c1ccc(Cl)cc1 [Indomethacin]
colony growth (mouse ES cells): inhibited colony growth | number of CFU-S12, decrease ([2]; WBM ex vivo 1 μM/10^6 cells, 1×10^5 cells transplanted): 70% | CFU-S12 Colony Number ([2]; Whole Marrow, 100000 cells transplanted, 1 μM/10^6 cells ex vivo, EtOH 8.8 (2.1)): 2.5 (1.4) | wnt activity (GFP expression) in TOP:dGFP embryos (wnt activity [3]; listed as indo): virtual absence of wnt activity | wnt activity (GFP expression) in TOP:dGFP embryos (wnt activity [3]; listed as indomethacin): severely reduced GFP expression | cmyb expression by qPCR (in words) (runx1, cmyb expression; 10 μM): significant alterations | runx1 expression by qPCR, reduction (runx1, cmyb expression; indomethacin 10 μM): 50% | effect on wnt8-mediated enhancement of runx1/cmyb expression / HSC induction (runx1/cmyb+ AGM HSCs [4]; listed as indo): reversed | effect on wnt8-mediated enhancement of runx1/cmyb expression / HSC induction (runx1/cmyb+ AGM HSCs [4]; listed as indomethacin): can be blocked | wnt activity (GFP) in kidney marrow of Top:dGFP adults (wnt activity [5]): inhibited GFP expression | embryos with slightly altered intersomitic vessels (vasculature (flk1); zebrafish, in vivo, 10 μM): 30% | embryos with slightly altered intersomitic vessels (# altered/# examined) (vasculature (flk1); zebrafish, in vivo, 10 μM): 15/49 | embryos with AGM HSCs inhibited (runx1/cmyb+ AGM HSCs [6]; 10 μM): 90% | decreased runx1/cmyb+ HSCs (# embryos altered/# scored) (runx1/cmyb+ AGM HSCs [6]; 10 μM, 36 hpf): 92/102 | effect on AGM HSCs in zebrafish embryos (in words) (runx1/cmyb+ AGM HSCs [6]): reduced stem cells in the aorta | PGE2 formation after treatment (PGE2 formation): < 2 pg/50 embryos | effect on wnt-mediated enhancement of the kidney marrow precursor cell population ([7]; listed as Indo): blocked | effect on wnt-mediated enhancement of the kidney marrow precursor cell population ([7]; listed as indomethacin): severely diminish | HSC numbers along the floor of the aorta by confocal microscopy (in words) (cmyb/lmo2+ HSCs): significantly decreased numbers of HSCs

CCCCC/C=C\C/C=C\CCCCCCCC(=O)O [Linoleic Acid]
effect on vasculature / flk1 staining (in words) (vasculature (flk1); zebrafish embryos, 36 hpf): remained relatively unchanged | Effect on HSC expression (# embryos altered/# embryos scored) (runx1/cmyb+ AGM HSCs [6]; Table 1, runx1/cmyb+ HSCs, zebrafish embryos, 36 hpf): Increase (22/30) | effect on AGM HSCs in zebrafish embryos (in words) (runx1/cmyb+ AGM HSCs [6]): upregulated HSC formation

CCCCC[C@H](O)/C=C/[C@H]1[C@H](O)CC(=O)[C@@H]1C/C=C\CCCC(=O)O [PGE2, prostaglandin E2]
wnt activity in the AGM of TOP:gal mice (wnt activity [8]): induced wnt activity | wnt activity (GFP expression) in TOP:dGFP embryos (wnt activity [3]): markedly enhanced wnt activity | increased runx1/cmyb expression (# embryos altered/# scored) (runx1/cmyb+ AGM HSCs [6]; 20 μM, 36 hpf): 25/49 | effect on AGM HSCs in zebrafish embryos (in words) (runx1/cmyb+ AGM HSCs [6]): stronger expression of runx1/cmyb than PGI2; also recorded: increase moderately

CS(=O)(=O)Nc1ccc([N+](=O)[O-])cc1OC1CCCCC1 [NS398]
CFUS activity under selective cox inhibition ([2]; CFUS12, WBM treated ex vivo): significantly alter CFUS activity | peripheral blood (day 14) and bone marrow (day 16) WBC counts after 5-FU injury [9]: significantly inhibited WBC recovery | decreased runx1/cmyb+ HSCs (# embryos altered/# scored) (runx1/cmyb+ AGM HSCs [6]; 20 μM, 36 hpf): 35/44 | effect on AGM HSCs in zebrafish embryos (in words) (runx1/cmyb+ AGM HSCs [6]): reduced stem cells in the aorta | survival of irradiated fish to day fourteen [10]: excessive death
